The values below come from patent publication US11584707B2, “Non-coordinating anion type activators containing cation having aryldiamine groups and uses thereof” (ExxonMobil Chemical Patents Inc., priority 2019, dated 2023).

Values joined by “and” are separate entries in the source; they are usually repeats but may differ in a detail not shown here. Equal values may be shown once.

The nature of experiment [1]: Ethylene-octene copolymerization (RUN A) in parallel pressure reactor. Conditions: catalyst = 20 nmol, activator = 22 nmol, 1-octene = 100 μL, isohexane 5 mL, tri(n-octyl)aluminum = 500 nmol, T = 100° C., P = 100 PSI. As for the experimental part:
(§1) Unless stated otherwise, solutions of the metal complexes and activators were prepared in a drybox using toluene or methylcyclohexane. Concentrations were typically 0.2 mmol/L. Tri-n-octylaluminum (TNOAL, neat, AkzoNobel) was typically used as a scavenger. Concentration of the TNOAL solution in toluene was from 0.5 to 2 mmol/L.
(§2) Polymerizations were carried out in a parallel pressure reactor, as generally described in U.S. Pat. Nos. 6,306,658; 6,455,316; 6,489,168; WO 2000/009255; and Murphy, V. et al. (2003) “A Fully Integrated High-Throughput Screening Methodology for the Discovery of New Polyolefin Catalysts: Discovery of a New Class of High Temperature Single-Site Group (IV) Copolymerization Catalysts,” J. Am. Chem. Soc., v.125, pp. 4306-4317, each of which is incorporated by reference. The experiments were conducted in an inert atmosphere (N2) drybox using autoclaves equipped with an external heater for temperature control, glass inserts (internal volume of reactor=23.5 mL for C2 and C2/C8; 22.5 mL for C3 runs), septum inlets, regulated supply of nitrogen, ethylene and propylene, and equipped with disposable PEEK mechanical stirrers (800 RPM). The autoclaves were prepared by purging with dry nitrogen at 110° C. or 115° C. for 5 hours and then at 25° C. for 5 hours. Although the specific quantities, temperatures, solvents, reactants, reactant ratios, pressures, and other variables are frequently changed from one polymerization run to the next, the following describes a typical polymerization performed in a parallel pressure reactor.
RUN A: Ethylene-octene copolymerization (EO). A series of ethylene-octene polymerizations were performed in the parallel pressure reactor according to the procedure described above. In these studies rac-dimethylsilyl-bis(indenyl)hafnium dimethyl (MCN-1) was used along with ammonium borate activators. […] When sufficient polymer yield was attained (e.g., at least ˜10 mg), the polyethylene product was analyzed by Rapid GPC, described below.

The nature of experiment [2]: Ethylene homopolymerization (RUN B) in parallel pressure reactor. The following applies: catalyst = 20 nmol, activator = 22 nmol, isohexane 5 mL, tri(n-octyl)aluminum = 500 nmol, T = 100° C., P = 100 PSI. As for the experimental part: as §1, §2
RUN B: Ethylene homopolymerization (PE). A series of ethylene polymerizations were performed in the parallel pressure reactor according to the procedure described above. In these studies rac-dimethylsilyl-bis(indenyl)hafnium dimethyl (MCN-1) was used along with ammonium borate activators. […] When sufficient polymer yield was attained (e.g., at least ˜10 mg), the polyethylene product was analyzed by Rapid GPC, described below.

For the molecule `CCCCCCCCCCCCCCCCCCN(C)c1cccc2c([NH+](C)CCCCCCCCCCCCCCCCCC)cccc12.Fc1c(F)c(F)c([B-](c2c(F)c(F)c(F)c(F)c2F)(c2c(F)c(F)c(F)c(F)c2F)c2c(F)c(F)c(F)c(F)c2F)c(F)c1F` [DANH-BF20], the “activity” value in experiment [1] is 545 kg/mmol/h and 661 kg/mmol/h and 448 kg/mmol/h and 492 kg/mmol/h; in experiment [2], 406 kg/mmol/h and 410 kg/mmol/h and 442 kg/mmol/h and 454 kg/mmol/h.

Turning to `CCCCCCCCCCCCCCCCCCN(C)c1cccc2c([NH+](C)CCCCCCCCCCCCCCCCCC)cccc12.Fc1c(F)c(F)c2c(F)c([B-](c3c(F)c(F)c4c(F)c(F)c(F)c(F)c4c3F)(c3c(F)c(F)c4c(F)c(F)c(F)c(F)c4c3F)c3c(F)c(F)c4c(F)c(F)c(F)c(F)c4c3F)c(F)c(F)c2c1F` [DANH-BF28], the “activity” value in experiment [1] is 466 kg/mmol/h and 445 kg/mmol/h and 421 kg/mmol/h and 397 kg/mmol/h; in experiment [2], 388 kg/mmol/h and 364 kg/mmol/h and 478 kg/mmol/h and 416 kg/mmol/h.

With “N,N-Dimethylanilinium tetrakis(pentafluorophenyl)borate [DMAH-BF20, reference compound]”, the “activity” value was 526 kg/mmol/h and 359 kg/mmol/h and 668 kg/mmol/h and 689 kg/mmol/h in experiment [1]; 366 kg/mmol/h and 380 kg/mmol/h and 516 kg/mmol/h and 454 kg/mmol/h in experiment [2].
